Measurements published in patent US20260226222A1, “PROCESS FOR MANUFACTURING POLYURETHANE FOAM” (Galata Chemicals, LLC, priority 2023, published 2026).
Where “and” joins values, the source holds several entries; their conditions need not be identical. Identical values can stand only once. Like-named read-outs stand apart in the source and are kept apart here.

How the values were obtained:
[1] = cited from earlier work
[2] = Catalytic Activity Test (Dielectric Polarization Analyzer SubCASE HT)
Protocol: Comparative catalytic activity of selected tin-containing catalysts was determined with the use of Dielectric Polarization Analyzer SubCASE HT (Format Messtechnik GmbH) that converts the dielectric conductivity signal to Pot Life and Cure Time (among others) of curing polymer systems. Pot Life was determined by the instrument as time between the mixing the reactants and beginning of the polymerization process at 10% reduction in dielectrical properties from the initial point. Cure Time is calculated as the time between the maximum cure rate point and the point at which the maximum rate is slowed down by 25%. The polyurethane test formulation used for screening catalytic activity of the selected tin-containing catalysts with the use of SubCASE HT is shown in Table 1.
The selected catalysts were tested at loadings of the same tin content. The following catalysts were tested for comparative catalytic activity: stannous di-2-ethylhexanoate, stannous dineodecanoate, stannous diricinoleate, dimethyltin dioleate and dimethyltin dineodecanoate. A catalyst was added to the polyol and mixed at 400 rpm until thoroughly dispersed. IPDI was then added to the polyol/catalyst mixture and mixed for 20 seconds at 400 rpm before introducing the mixture into the SubCASE HT instrument and starting the kinetics measurements. The instrument temperature was set to 30° C. Results of the comparative catalytic activity test for Pot Life and Cure Time of the selected tin-containing catalysts are in Table 2.

[3] = for Cream time / % Elongation / Density / Permeability / Resiliency / Tensile: catalyst 0.23 pphp
Protocol: In addition to the above Examples carried out in the screening polyurethane formulation, actual flexible polyurethane foam specimens were prepared and tested for their performance characteristics.
The flexible polyurethane foam formulation is in Table 4.
Testing results of the prepared foams are in Table 5.

[4] = reproductive toxicity / CMR status, current or as in Comments
[5] = same amount of tin (0.029 g), 30° C.

Compound	CMR classification ([1]; current)	CMR classification [1, 4]	CMR Classification (mutagen) ([1]; mutagenicity)	Cure Time [2, 5]	Cure Time-Pot Life [2, 5]	Pot Life [2, 5]	Cure Time ([2]; same tin amount)	Pot Life ([2]; same tin amount)	Cream time [3]	elongation ([3]; foam)	increase of elongation compared to Example Control 1 and Example Control 2 ([3]; foam)	% Elongation ([3]; foam)	Density ([3]; foam)	Permeability ([3]; foam)	Resiliency ([3]; foam)	Tensile ([3]; foam)
CC(=O)[O-].CC(=O)[O-].[CH3][Sn+2][CH3] [Dimethyltin diacetate]	reprotoxicants of category 2	Reprotox. of Cat. 2	–	–	–	–	–	–	–	–	–	–	–	–	–	–
Dibutyltin dilaurate	reprotoxicants of category 1B	Reprotox. of Cat. 1B	Mutagen of Cat. 2	–	–	–	–	–	–	–	–	–	–	–	–	–
Dimethyltin dineodecanoate	reprotoxicants of category 2	Reprotox. of Cat. 2	–	695 s	321 s	374 s	695 s	374 s	18 s	107%	about 31%	107%	1.37 lbs/ft3	0.3 scfm	20%	15 psi
Dimethyltin dioleate	reprotoxicants of category 2	Reprotox. of Cat. 2	–	1135 s	533 s	602 s	–	602 s	–	–	–	–	–	–	–	–
Dimethyltin diricinoleate	reprotoxicants of category 2	Reprotox. of Cat. 2	–	928 s	457 s	471 s	928 s	471 s	17 s	–	–	93%	1.39 lbs/ft3	4.4 scfm	35%	14 psi
Dioctyltin dilaurate	reprotoxicants of category 1B	Reprotox. of Cat. 1B	–	–	–	–	–	–	–	–	–	–	–	–	–	–
Stannous di(2-ethylhexanoate)	–	–	–	420 s	109 s	311 s	–	311 s	17 s	–	–	–	–	–	–	–
Stannous dineodecanoate	non-CMR	Not CMR	–	741 s	337 s	404 s	741 s	404 s and 471 s	15 s	97%	–	97%	1.32 lbs/ft3	0.6 scfm	28%	14 psi
Stannous diricinoleate	non-CMR	Not CMR	–	895 s	335 s	560 s	895 s	560 s	–	–	–	–	–	–	–	–
